Legend:
[1] = Clearance in African green monkey blood at 25 mg/kg administered as iv infusion twice daily for 7 consecutive days measured on day 7 by LC-MS/MS analysis; format: ADME, organism-based; conditions: chlorocebus aethiops
[2] = system: African green monkey; assay: Toxicity in African green monkey B6428 model infected with Yersinia pestis Colorado 92 assessed as blood urea nitrogen level at 25 mg/kg, iv administered within 6 hrs post onset of sustained fever as 30 mins infusion for 10 days (reference value: 16 mg/dl); format: organism-based; conditions: chlorocebus sabaeus, in vivo
[3] = system: Yersinia pestis; assay: Antibacterial activity against Yersinia pestis Colorado 92 infected in African green monkey 8047 model assessed as bacterial burden in tracheobronchial lymph nodes at 6.25 mg/kg, iv administered within 6 hrs post onset of sustained fever as 30 mins infusion for 10 days (reference value: 7.7 10^9CFU/g); format: functional, CO92, Lymph node
[4] = Cmax in African green monkey blood at 25 mg/kg administered as iv infusion twice daily for 7 consecutive days measured on day 1 by LC-MS/MS analysis; format: ADME, organism-based; parameters: dose 25 mg/kg, route intravenous; conditions: chlorocebus aethiops
[5] = Toxicity in African green monkey 7337 model infected with Yersinia pestis Colorado 92 assessed as total white blood cell count at 25 mg/kg, iv administered within 6 hrs post onset of sustained fever as 30 mins infusion for 10 days (reference value: 7.5 10^3/microL); format: organism-based; conditions: chlorocebus aethiops, in vivo
[6] = system: Yersinia pestis; assay: Antibacterial activity against Yersinia pestis Colorado 92 infected in African green monkey C2149 model assessed as bacterial burden in brain at 6.25 mg/kg, iv administered within 6 hrs post onset of sustained fever as 30 mins infusion for 5 days (reference value: 1.9 10^6CFU/g); format: functional, CO92
[7] = system: African green monkey; assay: Toxicity in African green monkey B6291 model infected with Yersinia pestis Colorado 92 assessed as serum creatinine level at 25 mg/kg, iv administered within 6 hrs post onset of sustained fever as 30 mins infusion for 10 days (reference value: 0.6 mg/dl); format: organism-based; conditions: chlorocebus sabaeus, in vivo
[8] = system: African green monkey; assay: Toxicity in African green monkey B6127 model infected with Yersinia pestis Colorado 92 assessed as stomach ulcer at 25 mg/kg, iv administered within 6 hrs post onset of sustained fever as 30 mins infusion for 10 days measured by hematoxylin staining based assay; format: organism-based; conditions: chlorocebus sabaeus, in vivo
[9] = system: Yersinia pestis; assay: Antibacterial activity against Yersinia pestis Colorado 92 infected in African green monkey B6960 model assessed as bacterial burden in tracheobronchial lymph nodes at 6.25 mg/kg, iv administered within 6 hrs post onset of sustained fever as 30 mins infusion for 5 days (reference value: 7.7 10^9CFU/g); format: functional, CO92, Lymph node
[10] = Elimination half life in African green monkey blood at 25 mg/kg administered as iv infusion twice daily for 7 consecutive days measured on day 7 by LC-MS/MS analysis; format: ADME, organism-based; conditions: chlorocebus aethiops, read-out: beta t1/2 (converted)
[11] = system: African green monkey; assay: Toxicity in African green monkey 7337 model infected with Yersinia pestis Colorado 92 assessed as serum gamma glutamyl-transferase level at 25 mg/kg, iv administered within 6 hrs post onset of sustained fever as 30 mins infusion for 10 days (reference value: 67 IU/L); format: organism-based; conditions: chlorocebus sabaeus, in vivo
[12] = system: Yersinia pestis; assay: Antibacterial activity against Yersinia pestis Colorado 92 infected in African green monkey assessed as survival of monkey at 25 mg/kg, iv administered within 6 hrs post onset of sustained fever as 30 mins infusion for 5 days; format: functional; conditions: CO92, iv
[13] = system: African green monkey; assay: Toxicity in African green monkey B6127 model infected with Yersinia pestis Colorado 92 assessed as tubule damage at 25 mg/kg, iv administered within 6 hrs post onset of sustained fever as 30 mins infusion for 10 days by hematoxylin staining based assay; format: organism-based; conditions: chlorocebus sabaeus, in vivo
[14] = system: Yersinia pestis; assay: Antibacterial activity against Yersinia pestis Colorado 92 infected in African green monkey B6960 model assessed as bacterial burden in liver at 6.25 mg/kg, iv administered within 6 hrs post onset of sustained fever as 30 mins infusion for 5 days (reference value: 5.2 10^8CFU/g); format: functional, CO92
[15] = system: Yersinia pestis; assay: Antibacterial activity against Yersinia pestis Colorado 92 infected in African green monkey C2149 model assessed as bacterial burden in spleen at 6.25 mg/kg, iv administered within 6 hrs post onset of sustained fever as 30 mins infusion for 5 days (reference value: 1.6 10^9CFU/g); format: functional, CO92
[16] = system: Yersinia pestis; assay: Antibacterial activity against Yersinia pestis Colorado 92 infected in African green monkey B6861 model assessed as bacterial burden in heart at 6.25 mg/kg, iv administered within 6 hrs post onset of sustained fever as 30 mins infusion for 5 days (reference value: 2.6 10^7CFU/g); format: functional, CO92
[17] = system: Yersinia pestis; assay: Antibacterial activity against Yersinia pestis Colorado 92 infected in African green monkey B6872 model assessed as bacterial burden in blood at 25 mg/kg, iv administered within 6 hrs post onset of sustained fever as 30 mins infusion for 5 days (reference value: 1.2 10^7CFU/ml); format: functional, organism-based; conditions: CO92
[18] = system: Yersinia pestis; assay: Antibacterial activity against Yersinia pestis Colorado 92 infected in African green monkey B6106 model assessed as bacterial burden in liver at 25 mg/kg, iv administered within 6 hrs post onset of sustained fever as 30 mins infusion for 5 days (reference value: 5.2 10^8CFU/g); format: functional, CO92
[19] = system: African green monkey; assay: Toxicity in African green monkey B6408 model infected with Yersinia pestis Colorado 92 assessed as blood urea nitrogen level at 25 mg/kg, iv administered within 6 hrs post onset of sustained fever as 30 mins infusion for 10 days (reference value: 22 mg/dl); format: organism-based; conditions: chlorocebus sabaeus, in vivo
[20] = system: African green monkey; assay: Toxicity in African green monkey B6140 model infected with Yersinia pestis Colorado 92 assessed as serum alanine aminotransferase level at 25 mg/kg, iv administered within 6 hrs post onset of sustained fever as 30 mins infusion for 10 days (reference value: 180 IU/L); format: organism-based; conditions: chlorocebus sabaeus, in vivo
[21] = system: Yersinia pestis; assay: Antibacterial activity against Yersinia pestis Colorado 92 infected in African green monkey B6872 model assessed as bacterial burden in tracheobronchial lymph nodes at 25 mg/kg, iv administered within 6 hrs post onset of sustained fever as 30 mins infusion for 5 days (reference value: 7.7 10^9CFU/g); format: functional, organism-based; conditions: CO92, Lymph node
[22] = Toxicity in African green monkey B6140 model infected with Yersinia pestis Colorado 92 assessed as total white blood cell count at 25 mg/kg, iv administered within 6 hrs post onset of sustained fever as 30 mins infusion for 10 days (reference value: 6.8 10^3/microL); format: organism-based; conditions: chlorocebus aethiops, in vivo
[23] = system: Yersinia pestis; assay: Antibacterial activity against Yersinia pestis Colorado 92 infected in African green monkey B6988 model assessed as bacterial burden in lung at 6.25 mg/kg, iv administered within 6 hrs post onset of sustained fever as 30 mins infusion for 5 days (reference value: 7.7 10^8CFU/g); format: functional, CO92
[24] = system: Yersinia pestis; assay: Antibacterial activity against Yersinia pestis Colorado 92 infected in African green monkey B6415 model assessed as bacterial burden in spleen at 25 mg/kg, iv administered within 6 hrs post onset of sustained fever as 30 mins infusion for 5 days (reference value: 1.6 10^9CFU/g); format: functional, CO92
[25] = Cmax in African green monkey blood at 35 mg/kg administered as iv infusion twice daily for 7 consecutive days measured on day 7 by LC-MS/MS analysis; format: ADME, organism-based; parameters: dose 35 mg/kg, route intravenous; conditions: chlorocebus aethiops
[26] = system: African green monkey; assay: Toxicity in African green monkey 7337 model infected with Yersinia pestis Colorado 92 assessed as blood urea nitrogen level at 25 mg/kg, iv administered within 6 hrs post onset of sustained fever as 30 mins infusion for 10 days (reference value: 15 mg/dl); format: organism-based; conditions: chlorocebus sabaeus, in vivo

CN[C@@H]1[C@@H](O)[C@@H](O[C@@H]2[C@@H](O)[C@H](O[C@H]3OC(CNCCO)=CC[C@H]3N)[C@@H](N)C[C@H]2NC(=O)[C@@H](O)CCN)OC[C@]1(C)O [PLAZOMICIN]
clearance [1]: 1.83 mL/min/kg | Activity [2]: 26 mg/dL | Activity [3]: 2 ×10⁹ CFU/g | Cmax [4]: 96 µg/mL | Activity [5]: 5 ×10³ /uL | Activity [6]: 46 CFU/g | Activity [7]: 0.5 mg/dL | Activity [8]: Toxic | Activity [9]: 1.6 ×10⁷ CFU/g | half-life [10]: 1.8 h | Activity [11]: 63 IU/L | survival at 25 mg/kg [12]: 69% | Activity [13]: Toxic | Activity [14]: 38 CFU/g | Activity [15]: 30 CFU/g | Activity [16]: 16 CFU/g | Activity [17]: Below limit of detection | Activity [18]: 95 CFU/g | Activity [19]: 20 mg/dL | Activity [20]: 71 IU/L | Activity [21]: Below limit of detection | Activity [22]: 7.2 ×10³ /uL | Activity [23]: 3.2 ×10⁸ CFU/g | Activity [24]: 90 CFU/g | Cmax [25]: 185 µg/mL | Activity [26]: 18 mg/dL
